Assay results published in patent US10544142B2, “Crystal forms of palbociclib, and preparation method and use therefor” (SHANGHAI BEGREAT PHARMATECH, priority 2016, dated 2020).

How the values were obtained:
[1] = Solubility of crystal Forms in pH 6.8 buffer (1 hour equilibration, filtration, HPLC); format: physicochemical; settings: for Solubility in pH 6.8 buffer: 20 mg in 1 mL, equilibrated for 1 hour, 0.45 μm filter, HPLC; for solubility in pH 6.8 buffer compared to existing crystal Forms: comparison with crystal Forms A and B
Protocol: The solubility of several new crystal Forms prepared in the above examples and Form A and B (prepared according to the method of WO2014128588A1) in a pH buffer solution (pH 6.8) was determined. 20 mg Form VIII, Form IX, Form XIV, Form A and Form B was precisely weighed and placed in a 2-mL glass vial, 1 mL of pH 6.8 buffer was added, sealed with cap, and mixed on a rotating mixer. After the suspension was equilibrated for 1 hour, the mixture was filtered through a 0.45 μm needle filter, and the concentration of 6-Acetyl-8-cyclopentyl-5-methyl-2-(5-piperazin-1-yl-pyridin-2-ylamino)-8H-pyrido[2,3-d]pyrimidin-7-one in the filtrate was analyzed by HPLC to obtain the solubility of different crystal Forms. The solubility of the polymorphs of 6-Acetyl-8-cyclopentyl-5-methyl-2-(5-piperazin-1-yl-pyridin-2-ylamino)-8H-pyrido[2,3-d]pyrimidin-7-one is shown in the following table: […]

[2] = prior art statement; cited from earlier work
[3] = Dissolution rate in pH 6.8 buffer; format: physicochemical; settings: comparison with crystal Forms A and B

Row | Solubility in pH 6.8 buffer [1] [mg/mL] | Structure (SMILES) | solubility in water [2] | dissolution rate in pH 6.8 buffer compared to existing crystal Forms [3] | solubility in pH 6.8 buffer compared to existing crystal Forms [1]
1 | 0.002 | CC(=O)c1c(C)c2cnc(Nc3ccc(N4CCNCC4)cn3)nc2n(C2CCCC2)c1=O [Form A, 6-Acetyl-8-cyclopentyl-5-methyl-2-(5-piperazin-1-yl-pyridin-2-ylamino)-8H-pyrido[2,3-d]pyrimidin-7-one, reference compound] | very small | – | –
2 | 0.003 | CC(=O)c1c(C)c2cnc(Nc3ccc(N4CCNCC4)cn3)nc2n(C2CCCC2)c1=O [Form B, 6-Acetyl-8-cyclopentyl-5-methyl-2-(5-piperazin-1-yl-pyridin-2-ylamino)-8H-pyrido[2,3-d]pyrimidin-7-one, reference compound] | very small | – | –
3 | 0.015 | CC(=O)c1c(C)c2cnc(Nc3ccc(N4CCNCC4)cn3)nc2n(C2CCCC2)c1=O [Form IX, 6-Acetyl-8-cyclopentyl-5-methyl-2-(5-piperazin-1-yl-pyridin-2-ylamino)-8H-pyrido[2,3-d]pyrimidin-7-one] | – | – | –
4 | 0.010 | CC(=O)c1c(C)c2cnc(Nc3ccc(N4CCNCC4)cn3)nc2n(C2CCCC2)c1=O [Form VIII, 6-Acetyl-8-cyclopentyl-5-methyl-2-(5-piperazin-1-yl-pyridin-2-ylamino)-8H-pyrido[2,3-d]pyrimidin-7-one] | – | greater than the existing crystal Forms A and B | greater than the existing crystal Forms A and B
5 | – | CC(=O)c1c(C)c2cnc(Nc3ccc(N4CCNCC4)cn3)nc2n(C2CCCC2)c1=O [Form XI, 6-Acetyl-8-cyclopentyl-5-methyl-2-(5-piperazin-1-yl-pyridin-2-ylamino)-8H-pyrido[2,3-d]pyrimidin-7-one] | – | greater than the existing crystal Forms A and B | greater than the existing crystal Forms A and B
6 | 0.012 | CC(=O)c1c(C)c2cnc(Nc3ccc(N4CCNCC4)cn3)nc2n(C2CCCC2)c1=O [Form XIV, 6-Acetyl-8-cyclopentyl-5-methyl-2-(5-piperazin-1-yl-pyridin-2-ylamino)-8H-pyrido[2,3-d]pyrimidin-7-one] | – | greater than the existing crystal Forms A and B | greater than the existing crystal Forms A and B
